Test results reported in patent US20090298708A1, “2'-DEOXY-2'-FLUORO-BETA-D-ARABINONUCLEOSIDE 5'-TRIPHOSPHATES AND THEIR USE IN ENZYMATIC NUCLEIC ACID SYNTHESIS” (priority 2006, published 2009).
“Also recorded” adds a separate entry of the source. Marks after values point to notes of the source that are not given here.

Biological target: T1, Deep Vent® (3′→5′ exo-) DNA polymerase (DV) (Pyrococcus sp., UniProt Q51334, D141A/DEL493-1029/E143A)
T1 construct: purchased New England Biolabs; host or cells: E. coli
T1 sequence (Q51334 other isoform, or with tags, fused parts or gaps D141A/E143A/DEL493-1029): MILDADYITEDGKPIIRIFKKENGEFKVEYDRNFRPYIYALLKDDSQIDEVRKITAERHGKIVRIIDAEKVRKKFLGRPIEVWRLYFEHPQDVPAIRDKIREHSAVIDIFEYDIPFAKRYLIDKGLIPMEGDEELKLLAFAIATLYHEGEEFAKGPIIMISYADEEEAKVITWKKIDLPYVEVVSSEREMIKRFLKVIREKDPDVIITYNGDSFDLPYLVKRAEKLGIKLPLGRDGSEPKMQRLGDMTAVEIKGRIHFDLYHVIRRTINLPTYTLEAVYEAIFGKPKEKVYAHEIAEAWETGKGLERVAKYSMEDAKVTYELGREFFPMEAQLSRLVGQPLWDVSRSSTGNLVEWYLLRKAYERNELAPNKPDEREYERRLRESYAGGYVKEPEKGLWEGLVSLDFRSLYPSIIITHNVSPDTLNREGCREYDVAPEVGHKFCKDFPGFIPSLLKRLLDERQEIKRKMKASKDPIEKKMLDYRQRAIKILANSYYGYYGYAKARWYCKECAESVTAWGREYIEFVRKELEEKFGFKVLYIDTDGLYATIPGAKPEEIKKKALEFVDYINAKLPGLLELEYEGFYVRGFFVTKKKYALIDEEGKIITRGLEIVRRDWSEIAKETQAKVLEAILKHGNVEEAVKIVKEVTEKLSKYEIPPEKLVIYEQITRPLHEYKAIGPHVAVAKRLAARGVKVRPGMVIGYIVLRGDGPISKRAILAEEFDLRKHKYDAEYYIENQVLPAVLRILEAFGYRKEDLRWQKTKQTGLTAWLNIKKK
Assay: Primer extension assay with Deep Vent (exo-) DNA polymerase
Assay type: biochemical, Pyrococcus species GB-D
Set-up: key to Incorporation of three 2′F-araTTP / 2′F-araCTP (incorporation efficiency) / Enzymatic activity during primer extension reactions: ++++: excellent (no pausing observed); +++: very good (with slight pausing); ++: Good, full-length products with significant pausing; +: significant pausing, no full-length product but at least one 2′F-araN incorporation detected
Conditions: for Order of efficiency of incorporation: DNA template PF22 (T/U triphosphates) or PF24 (C triphosphates), three contiguous units; for Incorporation of three 2′F-araTTP / 2′F-araCTP (incorporation efficiency): DNA template PF22 (2′F-araTTP) or PF24 (2′F-araCTP); for Enzymatic activity during primer extension reactions: plus dATP, dGTP
Method: Various different types of DNA polymerases were assessed, including the mesophilic enzyme Klenow fragment of DNA pol I (3′→5′ exo-) (“Kf”); the thermophilic DNA polymerases DV, 9N, Taq, Bst pol I, Th and Ph; and the viral reverse transcriptases HIV RT and MMLV. Kf is a genetically engineered proteolytic product of E. coli pol A gene that encodes DNA polymerase I which retains polymerase activity but has a mutation which abolishes the 3′->5′ and 5′->3′ exonuclease activities. DV is a genetically engineered DNA polymerase purified from a strain of E. coli that carries the DV DNA polymerase gene from Pyrococcus species GB-D. The gene has been engineered to eliminate 3′->5′ proofreading exonuclease activity. 9N is a genetically engineered DNA polymerase that has decreased 3′->5′ proofreading exonuclease activity. 9N is purified from a strain of E. coli that carries a modified 9° N DNA polymerase gene from Thermococcus species (strain 9° N-7). […] Taq polymerase is isolated from E. coli engineered to express Taq polymerase from Thermus aquaticus YT-1. Bst DNA polymerase (Large fragment) is a genetically engineered polymerase that consists of the portion of the Bacillus stearothemmophilus DNA polymerase protein responsible for 5′->3′ polymerase activity but lacks the 5′->3′ exonuclease domain. Th DNA polymerase is a genetically engineered, archaeon-derived DNA polymerase that is a variant of the 9N polymerase described above. The recombinant protein is isolated from E. coli engineered to express 9° NA485L (exo-) DNA polymerase gene, a genetic variant of the native DNA polymerase from Thermococcus species 9° N-7. Ph is a recombinant DNA polymerase that consists of a novel Pyrococcus-like enzyme fused with a double-strand DNA-binding and processivity-enhancing domain.
Primer extension assays were used to assess the incorporation of 2′F-araNTP on the various DNA templates (Table 1). The DNA primer (PF20) was first radioactively labeled at the 5′-hydroxyl terminus with a radioactive phosphorus probe and the enzyme T4 polynucleotide kinase (T4 PNK) (see Example 1 for General Methods). To assess the incorporation of 2′F-araNTPs, the primer and template were annealed, and the nucleoside 5′-triphosphates added in the presence of enzyme under the conditions specified in Table 2. Time points were obtained by analyzing small aliquots from the reaction mixture through polyacryamide gel electrophoresis (PAGE) and autoradiography.
Unless otherwise noticed in the Examples described below, the conditions used in the primer extension assays, such as dNTP concentration, reaction temperatures, concentration of Mg^2+, and reaction buffers (provided by the manufacturers, except for the HIV buffer which was prepared in-house) are shown in Table 2.
Primer extension assays were used to assess the incorporation of 2′F-araTTP on the DNA template (PF22). The DNA primer (PF20) was first radioactively labeled at the 5′-hydroxyl terminus with a radioactive phosphorus probe and the enzyme T4 polynucleotide kinase (T4 PNK) according to the manufacturer's specifications (MBI Fermentas Life Sciences, Burlington, ON). Incorporation of the ^32P label was accomplished in reaction mixtures consisting of DNA substrate (200 pmol), 2 μl loxreaction buffer (Buffer A for forward reaction: 500 mM Tris-HCl, pH 7.6 at 25° C., 100 mM MgCl2, 50 mM DTT, 1 mM spermidine and 1 mM EDTA), 1 μl T4 PNK enzyme solution (10 U/1 μl in a solution of 20 mM Tris-HCl, pH 7.5, 25 mM KCl, 0.1 mM EDTA, 2 mM DTT and 50% glycerol), 6 μl [γ-^32P]-ATP solution (6000 Ci/mmol, 10 mCi/ml; Amersham Biosciences, Inc.) and autoclaved sterile water to a final volume of 20 μl. The reaction mixture was incubated for about 45-60 min at 37° C., followed by a second incubation for 10 min at 95° C. to heat denature and deactivate the kinase enzyme.

Row | Compound | Order of efficiency of incorporation (55° C.) | Incorporation of three 2′F-araTTP / 2′F-araCTP (incorporation efficiency) (37° C.) | also measured
1 | O=c1ccn([C@@H]2O[C@H](COP(=O)(O)OP(=O)(O)OP(=O)(O)O)[C@@H](O)[C@H]2F)c(=O)[nH]1 [2′F-rUTP, 1-(2-deoxy-2-fluoro-β-D-ribo-furanosyl)uracil 5′-triphosphate, reference compound] | dTTP~2′F-araTTP > 2′F-rUTP |  | desired full-length product (DNA template PF22, after 9.5 h, 55° C.): 20%
2 | Cc1cn([C@H]2C[C@H](O)[C@@H](COP(=O)(O)OP(=O)(O)OP(=O)(O)O)O2)c(=O)[nH]c1=O [dTTP, reference compound] | dTTP~2′F-araTTP > 2′F-rUTP |  | 
3 | Nc1ccn([C@H]2C[C@H](O)[C@@H](COP(=O)(O)OP(=O)(O)OP(=O)(O)O)O2)c(=O)n1 [dCTP] | dCTP~2′F-rCTP~2′F-araCTP |  | 
4 | Nc1ccn([C@@H]2O[C@H](COP(=O)(O)OP(=O)(O)OP(=O)(O)O)[C@@H](O)[C@@H]2F)c(=O)n1 [2′F-araCTP, 1-(2-deoxy-2-fluoro-β-D-arabinofuranosyl)cytosine 5′-triphosphate] | dCTP~2′F-rCTP~2′F-araCTP | +++ | Incorporation of three 2′F-araTTP / 2′F-araCTP (incorporation efficiency) (55° C.): ++++; Enzymatic activity during primer extension reactions (Example 3, DNA template PF24, 3x 2′F-araCTP, dTTP, 55° C.): ++++
5 | Cc1cn([C@@H]2O[C@H](COP(=O)(O)OP(=O)(O)OP(=O)(O)O)[C@@H](O)[C@@H]2F)c(=O)[nH]c1=O [2′F-araTTP, 1-(2-deoxy-2-fluoro-β-D-arabino-furanosyl)thymine 5′-triphosphate] | dTTP~2′F-araTTP > 2′F-rUTP | ++++ | yield of full length product (DNA template PF22, after 5 min, 55° C.): nearly quantitative yield; also recorded: near quantitative yield; Enzymatic activity during primer extension reactions (Example 2, DNA template PF22, 3x 2′F-araTTP, dCTP, at 37° C.): +++^b
6 | Nc1ccn([C@@H]2O[C@H](COP(=O)(O)OP(=O)(O)OP(=O)(O)O)[C@@H](O)[C@H]2F)c(=O)n1 [2′F-rCTP, 1-(2-deoxy-2-fluoro-β-D-ribofuranosyl) cytosine 5′-triphosphate, reference compound] | dCTP~2′F-rCTP~2′F-araCTP |  | 
